From PubChem BioAssay AID2060340 (Molecular Pharmacology Branch, DTP, NCI, 2025)

Tested on: 349418-098-R-PDC spheroids, viability, % test/control
Experiment: Anticancer human tumor 349418-098-R-PDC patient-derived lung adenocarcinoma cell line growth inhibition [IpAb]
Conditions: spheroids with HUVEC and MSC; for IC50: curve of first compound; for viability, T/C: stronger effect = lower value
Method in brief: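 Spheroids of 60% malignant cells, 25% HUVEC and 15% MSC were exposed to targeted agents combined with ipatasertib or abemaciclib. Doses started at or near clinical Cmax (10 microM when unknown) and fell in half-log steps.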

[1] = second compound 0.1 µM, first compound 0.0316 µM
[2] = second compound 0.1 µM, first compound 0.1 µM
[3] = second compound 0.1 µM, first compound 0.316 µM
[4] = second compound 0.1 µM, first compound 1 µM
[5] = second compound 0.1 µM, first compound 3.16 µM
[6] = second compound 0.1 µM, first compound 10 µM
[7] = second compound 0.316 µM, first compound 0.0316 µM
[8] = second compound 0.316 µM, first compound 0.1 µM
[9] = second compound 0.316 µM, first compound 0.316 µM
[10] = second compound 0.316 µM, first compound 1 µM
[11] = second compound 0.316 µM, first compound 3.16 µM
[12] = second compound 0.316 µM, first compound 10 µM
[13] = second compound 1 µM, first compound 0.0316 µM
[14] = second compound 1 µM, first compound 0.1 µM
[15] = second compound 1 µM, first compound 0.316 µM
[16] = second compound 1 µM, first compound 1 µM
[17] = second compound 1 µM, first compound 3.16 µM
[18] = second compound 1 µM, first compound 10 µM
[19] = second compound 3.16 µM, first compound 0.0316 µM
[20] = second compound 3.16 µM, first compound 0.1 µM
[21] = second compound 3.16 µM, first compound 0.316 µM
[22] = second compound 3.16 µM, first compound 1 µM
[23] = second compound 3.16 µM, first compound 3.16 µM
[24] = second compound 3.16 µM, first compound 10 µM
[25] = second compound 10 µM, first compound 0.0316 µM
[26] = second compound 10 µM, first compound 0.1 µM
[27] = second compound 10 µM, first compound 0.316 µM
[28] = second compound 10 µM, first compound 1 µM
[29] = second compound 10 µM, first compound 3.16 µM
[30] = second compound 10 µM, first compound 10 µM

| Structure (SMILES) | IC50 (second compound 0.1 µM) | IC50 (second compound 0.316 µM) | IC50 (second compound 1 µM) | IC50 (second compound 3.16 µM) | IC50 (second compound 10 µM) | viability, T/C [1] | viability, T/C [2] | viability, T/C [3] | viability, T/C [4] | viability, T/C [7] | viability, T/C [8] | viability, T/C [9] | viability, T/C [10] | viability, T/C [13] | viability, T/C [14] | viability, T/C [15] | viability, T/C [16] | viability, T/C [19] | viability, T/C [20] | viability, T/C [21] | other results |
| --- | --- | --- | --- | --- | --- | --- | --- | --- | --- | --- | --- | --- | --- | --- | --- | --- | --- | --- | --- | --- | --- |
| CC1(C)CCC(CN2CCN(c3ccc(C(=O)NS(=O)(=O)c4ccc(NCC5CCOCC5)c([N+](=O)[O-])c4)c(Oc4cnc5[nH]ccc5c4)c3)CC2)=C(c2ccc(Cl)cc2)C1 + CC(C)NCC(C(=O)N1CCN(c2ncnc3c2C(C)CC3O)CC1)c1ccc(Cl)cc1 | 3.82 µM | 0.326 µM | < 0.0316 µM | < 0.0316 µM | < 0.0316 µM | 99.2% | 96.5% | 97.8% | 78% | 64.7% | 49.4% | 50.6% | 40.1% | 30% | 29.5% | 27.3% | 20.4% | 13.3% | 13% | 11.5% | viability, T/C [5]: 60.6%; viability, T/C [6]: 7.06%; viability, T/C [11]: 31.4%; viability, T/C [12]: 5.53%; viability, T/C [17]: 16%; viability, T/C [18]: 4.15%; viability, T/C [22]: 12.3%; viability, T/C [23]: 8.4%; viability, T/C [24]: 3.13%; viability, T/C [25]: 8.33%; viability, T/C [26]: 8.41%; viability, T/C [27]: 8.13%; viability, T/C [28]: 7.39%; viability, T/C [29]: 5.52%; viability, T/C [30]: 2.19% |
| CCCS(=O)(=O)Nc1ccc(F)c(C(=O)c2c[nH]c3ncc(-c4ccc(Cl)cc4)cc23)c1F + CC(C)NCC(C(=O)N1CCN(c2ncnc3c2C(C)CC3O)CC1)c1ccc(Cl)cc1 | 0.106 µM | < 0.0316 µM | < 0.0316 µM | < 0.0316 µM | < 0.0316 µM | 56.4% | 48.1% | 42.4% | 38.4% | 32.9% | 29.4% | 29.8% | 21.7% | 19.1% | 16.6% | 11.9% | 10.1% | 9.81% | 7.85% | 7.36% | viability, T/C [5]: 33.5%; viability, T/C [6]: 15.7%; viability, T/C [11]: 21.4%; viability, T/C [12]: 11.2%; viability, T/C [17]: 11%; viability, T/C [18]: 7.7%; viability, T/C [22]: 6.91%; viability, T/C [23]: 7.18%; viability, T/C [24]: 6.15%; viability, T/C [25]: 6.76%; viability, T/C [26]: 6.33%; viability, T/C [27]: 5.46%; viability, T/C [28]: 5.62%; viability, T/C [29]: 5.53%; viability, T/C [30]: 4.47% |
| COc1c(OCCCN2CCOCC2)ccc2c3n(c(=NC(=O)c4cnc(N)nc4)nc12)CCN3 + CC(C)NCC(C(=O)N1CCN(c2ncnc3c2C(C)CC3O)CC1)c1ccc(Cl)cc1 | 0.00397 µM | < 0.00316 µM | < 0.00316 µM | < 0.00316 µM | < 0.00316 µM | 9.62% | 5.79% | 5.45% | 5.99% | 8.11% | 6.04% | 5.28% | 5.13% | 7.4% | 5.13% | 5.24% | 4.6% | 6.17% | 4.91% | 4.85% | viability, T/C (second compound 0.1 µM, first compound 0.00316 µM): 55.1%; viability, T/C (second compound 0.1 µM, first compound 0.01 µM): 29.2%; viability, T/C (second compound 0.316 µM, first compound 0.00316 µM): 35%; viability, T/C (second compound 0.316 µM, first compound 0.01 µM): 21.2%; viability, T/C (second compound 1 µM, first compound 0.00316 µM): 16.6%; viability, T/C (second compound 1 µM, first compound 0.01 µM): 9.17%; viability, T/C (second compound 3.16 µM, first compound 0.00316 µM): 9.24%; viability, T/C (second compound 3.16 µM, first compound 0.01 µM): 8.35%; viability, T/C [22]: 4.78%; viability, T/C (second compound 10 µM, first compound 0.00316 µM): 6.46%; viability, T/C (second compound 10 µM, first compound 0.01 µM): 6.12%; viability, T/C [25]: 5.32%; viability, T/C [26]: 4.15%; viability, T/C [27]: 4.39%; viability, T/C [28]: 4.49% |
| Cc1nc(NC(=O)N2CCCC2C(N)=O)sc1-c1ccnc(C(C)(C)C(F)(F)F)c1 (stereo not given) + CC(C)NCC(C(=O)N1CCN(c2ncnc3c2C(C)CC3O)CC1)c1ccc(Cl)cc1 | 0.117 µM | < 0.0316 µM | < 0.0316 µM | < 0.0316 µM | < 0.0316 µM | 75.5% | 52.5% | 31.8% | 16.8% | 40.3% | 33.8% | 24.9% | 12.6% | 21.9% | 16.2% | 13.6% | 11% | 11.4% | 9.53% | 9.54% | viability, T/C [5]: 14.2%; viability, T/C [6]: 12.7%; viability, T/C [11]: 13.7%; viability, T/C [12]: 9.57%; viability, T/C [17]: 10.2%; viability, T/C [18]: 8.68%; viability, T/C [22]: 7.39%; viability, T/C [23]: 7.95%; viability, T/C [24]: 7.62%; viability, T/C [25]: 8.29%; viability, T/C [26]: 7.93%; viability, T/C [27]: 7.48%; viability, T/C [28]: 6.51%; viability, T/C [29]: 6.55%; viability, T/C [30]: 5.85% |
